Test results published in patent US20240384268A1, “Oligonucleotides” (Hudson Institute of Medical Research, priority 2021, published 2024).
In the oligonucleotide strings, read from the 5' end, every base follows the letter of its sugar. An asterisk marks phosphorothioate; unmarked linkages are phosphodiester. Other units and linkages are bracketed, terminal groups are in braces. A string of capitals states the bases alone. d = 2'-deoxy (DNA); m = 2'-O-methyl

Molecular target: cGAS (Homo sapiens, UniProt Q8N884)
Sequence (Q8N884 whole entry): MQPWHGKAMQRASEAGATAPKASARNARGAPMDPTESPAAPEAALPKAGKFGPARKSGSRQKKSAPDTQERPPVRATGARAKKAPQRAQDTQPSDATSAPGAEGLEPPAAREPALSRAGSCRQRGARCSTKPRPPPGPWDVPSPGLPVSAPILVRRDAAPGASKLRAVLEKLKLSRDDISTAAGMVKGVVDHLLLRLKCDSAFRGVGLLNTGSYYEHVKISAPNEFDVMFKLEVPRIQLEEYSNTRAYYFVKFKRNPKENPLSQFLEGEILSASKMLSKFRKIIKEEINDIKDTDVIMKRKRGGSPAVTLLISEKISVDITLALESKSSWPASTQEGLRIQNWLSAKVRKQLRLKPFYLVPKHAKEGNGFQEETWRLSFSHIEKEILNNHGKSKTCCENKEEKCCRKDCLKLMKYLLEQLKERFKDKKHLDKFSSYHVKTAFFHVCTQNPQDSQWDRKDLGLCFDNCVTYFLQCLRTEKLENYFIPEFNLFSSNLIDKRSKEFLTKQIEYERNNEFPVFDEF
Assay: ISD70-driven IP-10 (and IFN-β) production in THP-1 cells, ELISA
Type: cell-based
Set-up: endogenous in cells; host or cells: THP-1 (undifferentiated)
Conditions: ASO 100 nM; relative to ISD70 only, given as fraction

In order of rising “cGAS 100 nM (averaged IP-10 level relative to ISD70 condition)” value:
1. GCACACTTCGTACCCA (antisense; LNA-modified, pattern not given here) [CAMSAP1-4915 LNA V1]  0.383
2. CGTATTATAGCCGATT (antisense; LNA-modified, pattern not given here) [NC1 LNA PS 3-10-3]  0.443
3. GAAAGGTTATGCAAGG (antisense; LNA-modified, pattern not given here) [CTNN2B-916 LNA KL]  0.473
4. ATGGCCTCCCATCTCC (antisense; LNA-modified, pattern not given here) [HPRT LNA-330 V1]  0.475
5. GAGGTCTTGGCTTCGT (antisense; LNA-modified, pattern not given here) [MB21D1-525 LNA V1]  0.508
6. CCACTTGGCAGACCAT (antisense; LNA-modified, pattern not given here) [CTNN2B-1575 LNA V1]  0.532
7. CCAGCAGGTCAGCAAA (antisense; LNA-modified, pattern not given here) [HPRT LNA-388 KL]  0.552
8. CTTCGTGGGGTCCTTT (antisense; LNA-modified, pattern not given here) [HPRT LNA-662 V1]  0.556
9. CCTTGCACGTGGCTTC (antisense; LNA-modified, pattern not given here) [EGFR-1013 LNA V1]  0.559
10. CACTTCGTGGGGTCCT (antisense; LNA-modified, pattern not given here) [HPRT LNA-664 V1]  0.562
11. TCCTTGCACGTGGCTT (antisense; LNA-modified, pattern not given here) [EGFR-1014 LNA V1]  0.591
12. AACACTTCGTGGGGTC (antisense; LNA-modified, pattern not given here) [HPRT LNA-666 V1]  0.598
13. TCCACAATCAAGACAT (antisense; LNA-modified, pattern not given here) [HPRT LNA-551 KL]  0.601
14. ATGTGATGGCCTCCCA (antisense; LNA-modified, pattern not given here) [HPRT LNA-335 V1]  0.606
15. CGGCCTCGGAAGCTCT (antisense; LNA-modified, pattern not given here) [MB21D1-168 LNA V1]  0.617
16. AACCCCTTTCACCATC (antisense; LNA-modified, pattern not given here) [MB21D1-689 LNA KL]  0.621
17. AGATTTCAGAGCAGCT (antisense; LNA-modified, pattern not given here) [EGFR-4885 LNA KL]  0.625
18. AGGCCCTTCGCACTTC (antisense; LNA-modified, pattern not given here) [EGFR-1225 LNA V1]  0.629
19. GATGGCCTCCCATCTC (antisense; LNA-modified, pattern not given here) [HPRT LNA-331 V1]  0.632
20. AGGACTCCAGATGTTT (antisense; LNA-modified, pattern not given here) [HPRT LNA pos cont]  0.632
21. TACTTTCCGAGGTGTC (antisense; LNA-modified, pattern not given here) [CAMSAP1-1739 LNA KL]  0.638
22. AGCTTCGAGGCCCCAG (antisense; LNA-modified, pattern not given here) [MB21D1-616 LNA V1]  0.648
23. GGTCTTGGCTTCGTGG (antisense; LNA-modified, pattern not given here) [MB21D1-523 LNA V1]  0.648
24. GTGATCTTGACATGCT (antisense; LNA-modified, pattern not given here) [EGFR-2790 LNA KL]  0.661
25. CTTGGCTTCGTGGAGC (antisense; LNA-modified, pattern not given here) [MB21D1-520 LNA V1]  0.666
26. AAAGGACTGAGGAAAG (antisense; LNA-modified, pattern not given here) [CAMSAP1-6273 LNA KL]  0.675
27. TGTCCTTGCACGTGGC (antisense; LNA-modified, pattern not given here) [EGFR-1016 LNA V1]  0.678
28. TCTTGGCTTCGTGGAG (antisense; LNA-modified, pattern not given here) [MB21D1-521 LNA V1]  0.693
29. GTGATGGCCTCCCATC (antisense; LNA-modified, pattern not given here) [HPRT LNA-333 V1]  0.724
30. TCGTGGGGTCCTTTTC (antisense; LNA-modified, pattern not given here) [HPRT LNA-660 V1]  0.729
31. TGACTGTCTTGAGGGT (antisense; LNA-modified, pattern not given here) [MB21D1-1483 LNA KL]  0.747
32. GGTCATTACAATAGCT (antisense; LNA-modified, pattern not given here) [HPRT LNA-475 KL]  0.751
33. GGCTCGGCTTGCCTAC (antisense; LNA-modified, pattern not given here) [CAMSAP1-5594 LNA V1]  0.761
34. GTCTTCATCGGCCCTG (antisense; LNA-modified, pattern not given here) [CAMSAP1-2113 LNA V1]  0.809
35. TGGTGGCCACCCATCT (antisense; LNA-modified, pattern not given here) [CTNN2B-2479 LNA V1]  0.830
36. CCAACACTTCGTGGGG (antisense; LNA-modified, pattern not given here) [HPRT LNA-668 V1]  0.842
37. TCCGCCCAAAGGGAAC (antisense; LNA-modified, pattern not given here) [HPRT LNA-1027 KL]  0.860
38. ACGTTCAGTCCTGTCC (antisense; LNA-modified, pattern not given here) [HPRT LNA-294 V1]  0.880
39. TGACAAAGATTCACTG (antisense; LNA-modified, pattern not given here) [HPRT LNA-1353 KL]  0.887
40. ACTTCGTGGGGTCCTT (antisense; LNA-modified, pattern not given here) [HPRT LNA-663 V1]  0.937
41. GACTATACGCGCAATA (antisense; LNA-modified, pattern not given here) [NC5 LNA PS 3-10-3]  0.991
42. CCACATCCTGTGGCTC (antisense; LNA-modified, pattern not given here) [CAMSAP1-2906 LNA V1]  0.999

Same assay, conditions: MOE-modified ASO at 100 nM; averaged IP-10 levels relative to ISD70 condition

“ACACTTCGTGGGGTCCTTTT (antisense; 2'-MOE modified, pattern not given here) [HPRT-663 MOE]” was tested, and the “cGAS 100 nM” value was 0.623.

Same assay, conditions: THP-1; 100 nM ASO overnight, then ISD70 2.5 μg/ml 7-8 h; percentage of ISD70 only

In order of rising “cGAS-100 nM: averaged IP-10 levels relative to ISD70” value:
1. mG*mC*mA*mG*mU*C*T*C*C*A*T*G*T*C*C*mC*mA*mG*mG*mC (GCAGUCTCCATGTCCCAGGC; antisense; sugars from the 5' end m5 d10 m5, all phosphorothioate, methylation of C not given here) [[CDKN2B-AS1]2234]  10.02%
2. mC*mU*mU*mG*mU*G*A*A*A*A*G*A*T*T*A*mU*mC*mU*mU*mC (mC*mU*mU*mG*mU*dG*dA*dA*dA*dA*dG*dA*dT*dT*dA*mU*mC*mU*mU*mC) [[CDKN2B-AS1]2139]  33.75%
3. mA*mG*mU*mG*mG*C*A*C*A*T*A*C*C*A*C*mA*mC*mC*mC*mU (AGUGGCACATACCACACCCU; antisense; sugars from the 5' end m5 d10 m5, all phosphorothioate, methylation of C not given here) [[CDKN2B-AS1]495]  59.69%
4. mC*mA*mG*mU*mG*T*T*T*T*T*A*A*T*T*T*mU*mG*mU*mA*mG (mC*mA*mG*mU*mG*dT*dT*dT*dT*dT*dA*dA*dT*dT*dT*mU*mG*mU*mA*mG; antisense) [[CDKN2B-AS1]613]  60.94%
5. mA*mA*mA*mG*mC*A*G*T*C*T*C*C*A*T*G*mU*mC*mC*mC*mA (mA*mA*mA*mG*mC*dA*dG*dT*dC*dT*dC*dC*dA*dT*dG*mU*mC*mC*mC*mA; antisense) [[CDKN2B-AS1]2237]  70.95%
6. mU*mA*mU*mU*mU*C*C*A*C*A*T*G*C*C*C*mA*mG*mU*mG*mU (mU*mA*mU*mU*mU*dC*dC*dA*dC*dA*dT*dG*dC*dC*dC*mA*mG*mU*mG*mU; antisense) [[CDKN2B-AS1]627]  80.99%
7. mG*mU*mC*mU*mC*C*A*T*G*T*C*C*C*A*G*mG*mC*mC*mU*mC (mG*mU*mC*mU*mC*dC*dA*dT*dG*dT*dC*dC*dC*dA*dG*mG*mC*mC*mU*mC) [[CDKN2B;AS1]2231]  84.16%

Same assay, conditions: THP-1; 2′OMe or PS oligos, 100-250 nM, pre-treatment as in figure legends; ISD70 2.5 μg/ml

With “mG*mC*mA*mG*mU*C*T*C*C*A*T*G*T*C*C*mC*mA*mG*mG*mC (GCAGUCTCCATGTCCCAGGC; antisense; sugars from the 5' end m5 d10 m5, all phosphorothioate, methylation of C not given here) [[CDKN2B-AS1]2234]” the “inhibition of ISD70-driven IP-10 production (in words)” value was “robustly inhibited ISD70-dependent IP-10 production”.
